Entries after “also recorded” stand apart in the source; their conditions may differ. Like-named read-outs stand apart in the source and are kept apart here.
How the values were obtained:
[1] = system: Ad8-luc virus in HOS CCR5 lacZ line; assay: Infection of HOS CCR5 lacZ cells (not expressing S1PR1) with Ad8-luc virus (luciferase activity); type: cell-based, HIV-1
[2] = system: HIV-1 strain JR-CSF (R5 strain); assay: Humanized SCID mice (hu-PBL-SCID) infected with HIV-1, viral load by qPCR; type: in vivo, mouse (SCID, grafted with human PBMCs); settings: FTY720 0.3 mg per kg per day by gavage from D-1, viral load D6, 9, 12; p=0.023 (FIG. 6)
Procedure: SCID mice have the cb17/Icr-Prkdc^scid/Crl genotype. These immunodepressed mice are housed in an A3/L3 animal house in cages with a filter lid, in a ventilated cage rack. After one week of acclimatization, the animals are reconstituted by intraperitoneal injection of 30×10^6 PBMCs obtained by density centrifugation of the leukocytes of an uncertified cytapheresis annulus from a healthy volunteer donor. The reconstitution is evaluated on the 13th day by assaying the human immunoglobulins (Igs) present in the serum of the mice by means of an Elisa assay using the anti-human whole Ig-PO antibody (MP Biomedical, cat n° 55230). The mice whose total Ig concentration is greater than 100 μg/ml are kept for the experiment, and are infected 14 days after the reconstitution with the HIV-1 strain JR-CSF (R5 strain) at 1000 TCID50 in 100 μl. Daily gavage with 100 μl of FTY720 (Cayman, sold by Interchim ref. BM8045) dissolved at 60 μg/ml in distilled water is begun one day before the infection and continued for 12 days. The untreated mice are given the same volume of distilled water by gavage. […] The viremies are evaluated by quantification of the viral ARN in the plasma of the mice by qPCR with the AmpliPrep/COBAS TaqMan HIV-1 test (Roche Diagnostics, ref. 05212294190). […]

[3] = system: Ad8-luc virion (nonreplicative R5-pseudotyped HIV-1) in HEK-293T CD4+ CCR5+ cells; assay: Infection of S1PR1-transfected HEK-293T CD4+ CCR5+ cells with Ad8-luc virion (luciferase activity); type: cell-based
Procedure: In order to test the influence of the expression of S1PR1 on infection with HIV-1, 50 000 HEK-293T CD4+ CCR5+ cells were transiently transfected by lipofection, by incubating them for 24 hours with a mixture of 50 ng of CMV-S1PR1 plasmid, 20 ng of the pRL-TK-Renilla Luciferase plasmid (Promega) and 0.5 μl of lipofectamine (Lipofectamine™ 2000, Invitrogen) in 150 μl of DMEM medium, 10% FCS, in a 96-well plate, incubated beforehand with a solution of D-polylysine for 30 min. […] 24 h after the transfection, the wells are washed with DMEM (BioWhittaker), and then the cells are infected with 40 ng of the Ad8-luc virion in 180 μl of culture medium. […] 24 h after the infection, the cells are washed once with culture medium, and put back in culture with 200 μl of DMEM, 10% FCS. 40 h to 48 h after the infection, the cells are washed once with PBS, and lysed with 50 μl of buffer, and then the Firefly and Renilla luciferase activities are measured sequentially in a luminometer using the Dual-Luciferase® Reporter Assay system (Promega, cat: E1910). The Renilla luciferase activity is used as a measure of the level of cell metabolism.

[4] = system: Ad8-luc virus in peripheral blood mononuclear cells (PBMCs); assay: Infection of PBMCs with Ad8-luc virus (luciferase activity); type: cell-based, HIV-1
Procedure: The HOS-CD4 line (AIDS Reagent Program, Rockville, Md.) and the HEK-293T line (simian virus 40 T antigen-transformed human embryonic kidney 293T, Genethon) are cultured in DMEM medium supplemented with 10% of FCS (fetal calf serum), 10 mM of glutamax-1, 100 U/ml of penicillin and 100 μg/ml of streptomycin. The HEK-293T CD4+ CCR5+ line (gift from Martine Biard-Piechaczyk, Institute of Biology, Montpellier, France) was obtained by transfection of CD4 and CCR5 genes using the HEK-293T line. The human PBMCs in culture are isolated from blood of healthy donors by density centrifugation on lymphocyte separation medium (Eurobio) and cultured in RPMI medium supplemented like the DMEM at 37° C., 5% CO2.

[5] = HOS CCR5 lacZ cells not expressing S1PR1, 33 μM preincubation for one hour (FIG. 3), p<0.01

## CCCCCCCCc1ccc(CCC(N)(CO)CO)cc1.Cl [FTY720, 2-amino-2-[2-(4-octylphenyl)ethyl]propane-1,3-diol]
[1]; [5]
  decrease of the HIV infection: approximately 50%
[2]
  viremia / infection of the treated animals versus untreated group: clear decrease in viremia; also recorded: significant decrease

## CCCCCCCCc1ccc(CC[C@](N)(CO)COP(=O)(O)O)cc1 [FTY720-P]
[3]; S1PR1-expressing HEK-293T CD4+ CCR5+ cells, FTY720-P 80 ng/ml for 30 min before addition of the virus, unstimulated S1PR1 alone gives 60%
  reduction of infection compared with the empty plasmid control: 90%
[1]
  decrease of the HIV infection: approximately 50%
[4]; PBMCs from a healthy donor, 1 μM preincubation, Ad8-luc for 72 h (FIG. 4)
  inhibition of the infection: approximately 60%

## FC(F)(F)c1cccc(-c2noc(-c3cc(-c4ccccc4)c(C(F)(F)F)s3)n2)c1 [SEW2871]
[1]; [5]
  decrease of the HIV infection: No significant difference; also recorded: does not significantly modify the infection

## CCCCCCCCCCCCC/C=C/[C@@H](O)[C@@H](N)COP(=O)(O)O [Sphingosine-1-phosphate, sphingosine-1-phosphate]
[1]; [5]
  decrease of the HIV infection: approximately 50%
[4]; Human immunodeficiency virus 1, PBMC, read-out: inhibition of the infection
  inhibition at 1 µM: ~60%

B1: MIP1-β: a CCR5 ligand known to inhibit HIV infection (R&D systems) (protein, UniProt P13236 24-92, looked up)
C-C motif chemokine 4: APMGSDPPTACCFSYTARKLPRNFVVDYYETSSLCSQPAVVFQTKRSKQVCADPSESWVQEYVYDLELN
[3]; same conditions, anti-CCR5 antibody 10 μg/ml, MIP-1β 100 ng/ml, 30 min before infection
  decrease in infection compared with that of FTY720-P: of the same level
